Measured values taken from PMC7083880 (Nature Communications, 2020).

How the values were obtained:
[1] = tested on: HCC-GR6 cell tumors (wild-type TP53) in nude mice; assay: In vivo tumor growth, HCC-GR6 cells in nude mice; set-up: species or system mouse; settings: force-fed daily, 5 weeks
Procedure: (§1) Next, the capacity of DAP to correct UGA nonsense mutations in vivo was assessed in a mouse model. Four-week-old immunodeficient nude mice were injected with an identical number of Calu-6 cells carrying a UGA nonsense mutation in the TP53 gene, of HCC-GR6 cells having a wild-type TP53 gene or of p53-null 4T1 cells. […] The slower growth of Calu-6-cell-derived tumors in DAP-treated mice is thus likely due to rescue of p53 protein synthesis in these tumors, as expected on the basis of our cell culture experiments and as observed after western-blotting applied to protein extracts of tumors from DAP-treated mice (Supplementary Fig. 8B). Because of the small size of the Calu-6 tumors in DAP-treated mice and thus the high probability of collecting mouse cells upon tumor excision, quantitation of p53 was done in another experiment.
To initiate tumor growth, 6-week-old nude mice received subcutaneously 10 million cells suspended in PBS. […] Tumors were measured three times weekly for 5 weeks to determine the tumor volume by the following formula: l (mm) × L (mm) × L (mm). […]
The mice were exposed to DMSO or DAP for about five weeks and tumor size was measured three times weekly and plotted on the graph. […]
(B) Western blot analysis of p53 protein in the Calu-6-cell tumors of the seven DMSO-exposed and seven DAP-exposed mice. […] Error bar= S.D., p-values (p) were calculated using Student's t-test. […]

HeLa cells [2] = assay: Toxicity assay: adenylate kinase activity in culture medium; type: cell-based, human
Procedure: The toxicity assay was performed 24 h after starting cell treatment. The cell culture supernatant was centrifuged at 6000×g for 10 min to pellet cells and cell debris. One-twentieth of the supernatant was then used to measure adenylate kinase activity according to the supplier’s protocol (Lonza Biosciences, Basel, Switzerland).

[3] = tested on: tRNA 2′-O-methylation in HeLa cells; assay: tRNA 2′-O-methylation analysis by RiboMethSeq; type: cell-based, human; settings: 25 µM DAP, 24 h
Excerpt: Firefly luciferase from HEK293FT cells transfected with the Fluc-int-UGA construct was immunoprecipitated and digested with trypsin. The MS/MS spectrum of the peptide containing the PTC position and the sequence determination are shown. The upper red and blue sequences indicate the amino acids validated, respectively, by detection of Nter and Cter peptide fragments (b and y ion series). Peptide fragments y6 and y7 clearly identify tryptophan (W) at the PTC position. The black peaks correspond to non-attributed mass-to-charge ratio (m/z) values. […] Readthrough efficiency was determined by measuring luciferase activity in HeLa cells co-transfected with the firefly luciferase construct described in Fig. 1b and with increasing amounts of an expression vector for either FTSJ1 or CTU1 (0.5, 1, or 2 µg). The empty expression vector (E.v.) was used as control. […] The experiment was performed twice and the results of both experiments (Exp1 and Exp2) are shown. c Western blot analysis of FTSJ1 and CTU1. d 2′-O-methylation analysis of tRNA^Trp, tRNA^SER, and tRNA^GLN by RiboMethSeq. […] A molecular weight marker is indicated to the left of each gel. p-values (p) were calculated using Student’s t-test. Source data are provided as a Source Data file.
HeLa cells were incubated with DMSO or DAP before extraction of small RNAs (which include tRNAs). RiboMethSeq analysis of human tRNAs was then performed. […] Although the human targets of FTSJ1 remain poorly characterized, modification of Cm34 in tRNA^Trp has been attributed to FTSJ1 (ref. [41]). […] This is consistent with DAP-dependent inhibition of FTSJ1 activity. The third hit was 2′-O-methylation of tRNA^Ser at position Gm18, attributed to TARBP1 activity.
The detailed protocol and a description of the RiboMethSeq assay are provided elsewhere.

[4] = tested on: Calu-6 cell tumors in nude mice; assay: In vivo established Calu-6 tumors: tumor size and p53 western blot; set-up: species or system mouse
Procedure: For each experimental condition, 7 mice were used. b Fourteen nude mice were injected with Calu-6 cells to promote tumor development. […] The arrow indicates the starting time of the exposure to DMSO or DAP. For each experimental condition, 7 mice were used. […] GAPDH was used as loading control. A molecular weight marker is indicated to the left of the gel. The results presented in this figure are representative of two independent experiments. p-values (p) were calculated using Student’s t-test. Source data are provided as a Source Data file.
as §1
To initiate tumor growth, 6-week-old nude mice received subcutaneously 10 million cells suspended in PBS. […] Tumors were measured three times weekly for 5 weeks to determine the tumor volume by the following formula: l (mm) × L (mm) × L (mm). The tumors were then collected and a fraction was used for western blot analysis after protein extraction. All in vivo experiments complied with all relevant ethical regulations for animal testing and research and were authorized by the Ethic Committee 075 under the number 12971-2018010815336092.

HeLa cells [5] = assay: 2D differential gel electrophoresis (2D-DIGE) of whole proteome; type: cell-based, human
[6] = tested on: Calu-6 cell tumors in nude mice; assay: In vivo established Calu-6 tumors: tumor size and p53 western blot; set-up: species or system mouse; settings: DAP for 1 week after tumor size about 0.4 cm^3

Nc1nc(N)c2[nH]cnc2n1 [DAP, 2,6-diaminopurine]
Tumor growth vs DMSO, in words [1]: no significant difference in tumor growth | Adenylate kinase activity in culture medium (HeLa cells [2]; DAP 0.39, 24 h, average): 387040 | Adenylate kinase activity in culture medium (HeLa cells [2]; DAP 0.39, 24 h, experiment 1): 426825 | Adenylate kinase activity in culture medium (HeLa cells [2]; DAP 0.39, 24 h, experiment 2): 354564 | Adenylate kinase activity in culture medium (HeLa cells [2]; DAP 0.39, 24 h, experiment 3): 379730 | Adenylate kinase activity in culture medium (HeLa cells [2]; DAP 0.78, 24 h, average): 423131 | Adenylate kinase activity in culture medium (HeLa cells [2]; DAP 0.78, 24 h, experiment 1): 391755 | Adenylate kinase activity in culture medium (HeLa cells [2]; DAP 0.78, 24 h, experiment 2): 521708 | Adenylate kinase activity in culture medium (HeLa cells [2]; DAP 0.78, 24 h, experiment 3): 355930 | Adenylate kinase activity in culture medium (HeLa cells [2]; DAP 100, 24 h, average): 360341 | Adenylate kinase activity in culture medium (HeLa cells [2]; DAP 100, 24 h, experiment 1): 374460 | Adenylate kinase activity in culture medium (HeLa cells [2]; DAP 100, 24 h, experiment 2): 518986 | Adenylate kinase activity in culture medium (HeLa cells [2]; DAP 100, 24 h, experiment 3): 187576 | Adenylate kinase activity in culture medium (HeLa cells [2]; DAP 300, 24 h, average): 386608 | Adenylate kinase activity in culture medium (HeLa cells [2]; DAP 300, 24 h, experiment 1): 380370 | Adenylate kinase activity in culture medium (HeLa cells [2]; DAP 300, 24 h, experiment 2): 536556 | Adenylate kinase activity in culture medium (HeLa cells [2]; DAP 300, 24 h, experiment 3): 242898 | Adenylate kinase activity in culture medium (HeLa cells [2]; DAP 600, 24 h, average): 369027 | Adenylate kinase activity in culture medium (HeLa cells [2]; DAP 600, 24 h, experiment 1): 393840 | Adenylate kinase activity in culture medium (HeLa cells [2]; DAP 600, 24 h, experiment 2): 349368 | Adenylate kinase activity in culture medium (HeLa cells [2]; DAP 600, 24 h, experiment 3): 363874 | Adenylate kinase activity in culture medium (HeLa cells [2]; DAP 1200, 24 h, average): 443419 | Adenylate kinase activity in culture medium (HeLa cells [2]; DAP 1200, 24 h, experiment 1): 462690 | Adenylate kinase activity in culture medium (HeLa cells [2]; DAP 1200, 24 h, experiment 2): 487071 | Adenylate kinase activity in culture medium (HeLa cells [2]; DAP 1200, 24 h, experiment 3): 380497 | Adenylate kinase activity in culture medium (HeLa cells [2]; DAP 2400, 24 h, average): 405551 | Adenylate kinase activity in culture medium (HeLa cells [2]; DAP 2400, 24 h, experiment 1): 480750 | Adenylate kinase activity in culture medium (HeLa cells [2]; DAP 2400, 24 h, experiment 2): 416958 | Adenylate kinase activity in culture medium (HeLa cells [2]; DAP 2400, 24 h, experiment 3): 318945 | 2′-O-methylation of tRNA^Trp at position 34 [3]: Notably affected | Cm32 methylation of tRNA^Gln [3]: reduced Cm32 methylation | Level of tRNA 2′-O-methylation [3]: significantly lower for three tRNAs | Tumor size, average of 7 mice ([4]; measure 1 of 10 (time not given), DAP started when tumors about 0.4 cm^3): 0.002 cm^3 | Tumor size, average of 7 mice ([4]; measure 2 of 10 (time not given)): 0.02357 cm^3 | Tumor size, average of 7 mice ([4]; measure 3 of 10 (time not given)): 0.05086 cm^3 | Tumor size, average of 7 mice ([4]; measure 4 of 10 (time not given)): 0.07071 cm^3 | Tumor size, average of 7 mice ([4]; measure 5 of 10 (time not given)): 0.1153 cm^3 | Tumor size, average of 7 mice ([4]; measure 6 of 10 (time not given)): 0.1741 cm^3 | Tumor size, average of 7 mice ([4]; measure 7 of 10 (time not given)): 0.2344 cm^3 | Tumor size, average of 7 mice ([4]; measure 8 of 10 (time not given)): 0.3563 cm^3 | Tumor size, average of 7 mice ([4]; measure 9 of 10 (time not given)): 0.4617 cm^3 | Tumor size, average of 7 mice ([4]; measure 10 of 10 (time not given)): 0.5429 cm^3 | Pearson correlation coefficient of proteome profiles DAP vs DMSO (HeLa cells [5]): 0.94 | p53 protein in tumors (western blot) [6]: detected in tumors isolated from DAP-fed
